Key:
[1] = Solubility in aqueous systems; assay type: physicochemical
Excerpt: Five cocrystals of 2-4-(4-chloro-2-fluorophenoxy)phenyl]pyrimidine-4-carboxamide (Compound 1) were identified by using techniques of the disclosure. […] Although the permeability of Compound 1 could not be measured in Caco-2 cells because of its inherently low solubility, Compound 1 is suspected to be a Class II compound (low solubility and high permeability) as described in the biopharmaceutical drug classification scheme (BCS) (Amidon, Gordon L., Lennernaes, Hans, Shah, Vinod P. and Crison, John R. (1995) “A theoretical basis for a biopharmaceutic drug classification: the correlation of in vitro drug product dissolution and in vivo bioavailability” Pharmaceutical Research […], 12(3), 4 13-20). The calculated octanol/water partition coefficient (clogP) for Compound 1 is 2.9, supporting this suspicion (Yazdanian, Mehran, Glynn, Susan L., Wright, James L., and Hawi, Amale. (1998) “Correlating partitioning and Caco-2 cell permeability of structurally diverse small molecular weight compounds” Pharmaceutical Research 1998 15(9), 1490-1494). […] Cocrystallization techniques were used as a tool to improve the pharmaceutical properties of Compound 1.

[2] = Intrinsic dissolution studies; assay type: physicochemical; conditions: crystalline solid
Description: Intrinsic dissolution measurements were performed using a fiber optic probe (Delphian® type 11A fiber optic workstation, baseline correction mode with sample wavelength maximum of 279 nm and baseline wavelength of 350 nm) at 37° C. and 100 rpm in a USP apparatus II dissolution vessel (Vankel VK7010) containing 500 mL of pure water. Disks 0.8 cm diameter were compressed using 70 mg of solid in stainless steel dies (Vankel Woods apparatus) at 1000 lbs for 60 seconds with a Carver Press. Dissolution studies for cocrystal 2 lasted 90 minutes, after which time the disks were recovered, carefully ground and checked by XRPD for the presence of cocrystal. Due to the low solubility of Compound 1, dissolution studies were run over 24 hours in order to get a measurable rate.

[3] = Pharmacokinetic evaluation in beagle dogs after oral dosing of neat solid in gelatin capsule; assay type: in vivo; conditions: oral dosing of the crystalline solid
Description: A study was conducted to compare the pharmacokinetic profiles of Compound 1 and Cocrystal 2. Compound 1 and Cocrystal 2 were administered as neat solids to six male beagle dogs in a crossover study with a two-week washout period between treatments. Each dog was dosed with either Compound 1 or Cocrystal 2 in a gelatin capsule after an overnight fast. All research involving animal subjects adhered to the “Principles of Laboratory Animal Care” (NIH publication #85-23). Dose levels of 5 mg/kg and 50 mg/kg were each evaluated. Each dog received one size #2 capsule for the 5 mg/kg dose. Dosing at 50 mg/kg required use of two size #00 capsules for each dog. Blood samples were collected at intervals for 36 hours post-dose. Non-compartmental pharmacokinetic metrics were determined using WinNonlin v. 1.5 (Scientific Consulting, Inc., Mountain View, Calif.). The area under the plasma concentration-time curve (AUC) was estimated by application of the linear trapezoidal rule. Statistical analyses were conducted using Microsoft Excel 2000; statistical significance was considered when p<0.05.

NC(=O)c1ccnc(-c2ccc(Oc3ccc(Cl)cc3F)cc2)n1 [Compound 1]
solubility in aqueous systems [1]: < 0.1 µg/mL | in-vitro dissolution [2]: low | in-vivo plasma concentrations [3]: low
